Assay results taken from article PMC8145938, “Triphenilphosphonium Analogs of Chloramphenicol as Dual-Acting Antimicrobial and Antiproliferating Agents” (Antibiotics, 2021).

Experiments:
A549 = assay: MTT assay growth inhibition; format: cell-based, human; details: Homo sapiens, A549; MTT, 72 h; read-out: 50% growth inhibition concentration (GI50)
Method: (§1) The cytotoxicity of the tested substances was tested using the MTT (3-(4,5-dimethylthiazol-2-yl)-2,5-diphenyltetrazolium bromide) assay, with some modifications, and 2500 cells per well for the MCF7, HEK293T, and A549 cell lines or 4000 cells per well for the VA-13 cell line were plated in 135 µL of DMEM-F12 media (Gibco, Waltham, MA, USA) in a 96-well plate and incubated in the 5% CO2 incubator for first 16 h, without treatment. Then, 15 µL of media-DMSO solutions of the tested substances was added to the cells (the final DMSO concentrations in the media were 1% or less) and treated cells for 72 h with 25 nM–50 µM (eight dilutions) of our substances (triplicate each), and serial DMSO dilutions and doxorubicin were used as controls. The MTT reagent (Paneco LLC, Moscow, Russia) was then added to cells to a final concentration of 0.5 g/L (10× stock solution in PBS was used) and incubated for 2.5 h at 37 °C in the incubator under an atmosphere of 5% CO2. The MTT solution was then discarded, and 140 µL of DMSO (PharmaMed LLC, Krasnodarsky Krai, Russia) was added. The plates were swayed on a shaker (60 rpm) to dissolve the formazan. The absorbance was measured using a microplate reader (VICTOR X5 Light Plate Reader, PerkinElmer, Waltham, MA, USA) at a wavelength of 565 nm (in order to measure formazan concentration). The results were used to construct a dose-response graph and to estimate the CC50 value.

HEK293T = assay: MTT assay growth inhibition; format: cell-based; details: Homo sapiens, HEK-293T, 72 h, read-out: 50% growth inhibition concentration (GI50)
Method: as §1

VA13 = assay: MTT assay growth inhibition; format: cell-based; details: VA-13, 72 h, read-out: 50% growth inhibition concentration (GI50)
Method: as §1

MCF7 = assay: MTT assay growth inhibition; format: cell-based; details: Homo sapiens, 72 h, read-out: 50% growth inhibition concentration (GI50)
Method: as §1

Mycobacterium smegmatis = assay: MIC determination, broth microdilution; format: cell-based; details: Mycolicibacterium smegmatis
Source text: (§2) Standard laboratory strains of Bacillus subtilis subs. subtilis Cohn 1872, stains BR151, and 168, Staphylococcus aureus subsp. aureus Rosenbach 1884 strains JCM 2151 and entry MC#144 (from the Microorganisms Collection of the Moscow State University), Listeria monocytogenes Pirie 1940, Mycobacterium smegmatis Lehmann and Neumann 1899 (MC#377), and Escherichia coli Castellani and Chalmers 1919, strain JW5503 (with the deletion of tolC gene), which are resistant to the chloramphenicol strains, J53rif, C600rif/pIB55-1, C600rif/pIP162-1, and C600recA naI, were used.
(§3) The MICs for CAM-Cn-TPP and Cn-TPP were determined by Mueller-Hinton broth microdilution, as recommended by CLSI in the Methods for Dilution Antimicrobial Susceptibility Tests for Bacteria that Grow Aerobically, Approved Standard, 9th ed., CLSI document M07-A9, using in-house-prepared panels. The compounds were diluted in a 96-well microtiter plate to final concentrations ranging from 0.5 to 360 μM in a 250-µL aliquot of the bacterial suspension, followed by incubation at 37 °C or 30 °C for 18 h. […] The bacterial growth was observed visually alongside OD measurements. The experiments were carried out in triplicate.

Bacillus subtilis = assay: MIC determination, broth microdilution; format: cell-based
Source text: as §2, §3

B. subtilis pHT01-cat = assay: MIC determination, broth microdilution; format: cell-based; details: Bacillus subtilis, PHT01CAT
Method: (§4) E. coli ∆tolC CHL-resistant strain harboring plasmid encoding for chloramphenicol acetyltransferase (cat) (pCA24N-LacZ) and the control E. coli ∆tolC strain was used to evaluate the inhibitory effect of the compounds. CHL-resistant strains of B. subtilis pHT01-cat and B. subtilis pHT01-cfr were prepared by means of a transformation of a B. subtilis 168 strain with plasmids harboring the cat and cfr genes (chloramphenicol-florfenicol resistance) gene. The cfr gene encodes for the methyltransferase, which catalyzes the methylation of […] in the 23S rRNA and causes resistance to a variety of ribosome-targeting antibiotics that bind in the A site of the bacterial ribosome.
(§5) A standard laboratory strain of B. subtilis 168 was used to obtain the CHL-resistant strains, B. subtilis pHT01-CAT and B. subtilis pHT01-cfr, by means of transformation with the corresponding plasmids. Competent cell preparation and transformation procedures were conducted, as reported in [74, 75]. The desired colonies were selected at 10 µg/mL of CHL for B. subtilis pHT01 and 5 µg/mL or 3.2 µg/mL of CHL for B. subtilis pHT01-cfr.
as §3

B. subtilis pHT01-cfr = assay: MIC determination, broth microdilution; format: cell-based; details: Bacillus subtilis, PHT01CFR
Method: as §4, §5, §3

Listeria monocytogenes = assay: MIC determination, broth microdilution; format: cell-based
Source text: as §2
(§6) S. aureus was grown in Bacto Tryptic Soy Broth, L. monocytogenes in Brain Heart Infusion Broth, and E. coli in LB. Bacterial cells were grown at 30 °C or 37 °C in the appropriate medium at a 140 rpm shaking frequency.
as §3

Staphylococcus aureus = assay: MIC determination, broth microdilution; format: cell-based
Source text: as §2, §6, §3

E. coli ∆tolC-CAT = assay: MIC determination, broth microdilution; format: cell-based; details: Escherichia coli
Method: as §4
(§7) A standard laboratory strain of E. coli JW5503, with the deletion of the tolC gene, referred to here as the ∆tolC strain, was used to obtain the ∆tolC pCA24N-LacZ strain by means of transformation with the plasmid pCA24N-LacZ-harboring chloramphenicol acetyltransferase (cat) gene.
as §3

E. coli ∆tolC = assay: MIC determination, broth microdilution; format: cell-based; details: Escherichia coli
Method: as §4, §7, §3

[1] = tested on: E. coli BW25113 ΔtolC pDualrep2 reporter strain; assay: pDualrep2 double fluorescent reporter assay on agar plate; format: cell-based; details: for inhibition of cell growth (inhibition zone) of the reporter strain: 10 mM, 1.5 μL spotted on agar lawn; for induction of reporters (Katushka2S: ribosome stalling; RFP: DNA damage): compound spotted on agar lawn, overnight 37 °C
Source text: Next, we tested the effects of CAM-C10-TPP and CAM-C14-TPP in bacterial cells using an E. coli ∆tolC-based reporter system, which is designed to screen inhibitors targeting either protein synthesis or DNA replication. In this reporter system, the gene of the far-red fluorescent protein, katushka2S, is inserted downstream of the genetically modified tryptophan attenuator, making it possible to express Katushka2S only upon exposure to ribosome-stalling compounds (Figure 2B, CHL and ERY, red pseudocolor rings).
Reporter strain […] [71] ΔtolC (BW25113) pDualrep2 was used, as previously described. The tested antibiotics, CAM-C10-TPP (10 mM, 1.5 μL), CAM-C14-TPP (10 mM, 1.5 μL), C10-TPP (10 mM, 1.5 μL), C14-TPP (10 mM, 1.5 μL), CAM (10 mM, 1.5 μL), CAM-Ac (10 mM, 1.5 μL), chloramphenicol (CHL, 2 mM, 1 μL), erythromycin (Ery, 7 mM, 1 μL), and levofloxacin (Lev, 70 nM, 1 μL), were applied to an agar plate that already contained a lawn of the reporter strain. After being incubated overnight at 37 °C, the plate was scanned by ChemiDoc (Bio-Rad) in the modes, “Cy3-blot” for RFP and “Cy5-blot” for Katushka2S.

[2] = tested on: Escherichia coli C600rif/pIB55-1; assay: MIC determination, CHL resistant E. coli strains; format: cell-based
Source text: as §2, §3

[3] = tested on: Escherichia coli C600recA naI; assay: MIC determination, CHL resistant E. coli strains; format: cell-based; details: C600RECANAI
Source text: as §2, §3

[4] = tested on: Escherichia coli C600rif/pIP162-1; assay: MIC determination, CHL resistant E. coli strains; format: cell-based
Source text: as §2, §3

Escherichia coli J53rif = assay: MIC determination, CHL resistant E. coli strains; format: cell-based
Source text: as §2, §3

`COc1cccc2c1C(=O)c1c(O)c3c(c(O)c1C2=O)C[C@@](O)(C(=O)CO)C[C@@H]3O[C@H]1C[C@H](N)[C@H](O)[C@H](C)O1` [Doxorubicin, doxorubicin] showed a GI50 (A549) of 40 ± 10 nM, a GI50 (HEK293T) of 7 ± 1 nM and a GI50 (VA13) of 180 ± 40 nM. For the same compound, the GI50 (MCF7) was 40 ± 10 nM.

With `CCCCCCCCCCCCCC[P+](c1ccccc1)(c1ccccc1)c1ccccc1` [C14-TPP, tetradecyl(triphenyl)phosphonium bromide] the MIC (Mycobacterium smegmatis) was 4 µM, the MIC (Bacillus subtilis) was 8 µM and the MIC (B. subtilis pHT01-cat) was 1.6 µM. It also gave an MIC (B. subtilis pHT01-cfr) of 0.8 µM, an MIC (Listeria monocytogenes) of 2 µM and an MIC (Staphylococcus aureus) of 1.6 µM. It also gave an MIC (E. coli ∆tolC-CAT) of 6 µM, an MIC (E. coli ∆tolC) of 1.6 µM and a GI50 (A549) of 25 ± 9 nM. The “inhibition of cell growth (inhibition zone) of the reporter strain” value [1] was “inhibit bacterial cell growth”, the “induction of reporters (Katushka2S: ribosome stalling; RFP: DNA damage)” value (from here on “induction of reporters”) [1] was “do not induce either of the two reporters” and the GI50 (HEK293T) was 30 ± 20 nM. The GI50 (VA13) was 70 ± 50 nM and the GI50 (MCF7) was 20 ± 10 nM.

With `CC[C@H]1OC(=O)[C@H](C)[C@@H](O[C@H]2C[C@@](C)(OC)[C@@H](O)[C@H](C)O2)[C@H](C)[C@@H](O[C@@H]2O[C@H](C)C[C@H](N(C)C)[C@H]2O)[C@](C)(O)C[C@@H](C)C(=O)[C@H](C)[C@@H](O)[C@]1(C)O` [ERY, erythromycin] the “induction of reporters” value [1] was “red pseudocolor rings are observed due to the expression of the fluorescent protein, Katushka2S (but not RFP)”.

`CC(=O)N[C@H](CO)[C@H](O)c1ccc([N+](=O)[O-])cc1` [CAM-Ac, N-acetyl-chloramphenicol amine] was tested, and the “induction of reporters” value [1] was “neither the induction of either of the two reporters”.

`CCCCCCCCCC[P+](c1ccccc1)(c1ccccc1)c1ccccc1` [C10-TPP, decyl(triphenyl)phosphonium bromide] showed an MIC [2] of 67 µM, an MIC [3] of 136 µM and an MIC [4] of 93 µM. For the same compound, the MIC (Escherichia coli J53rif) was 110 µM, the MIC (Mycobacterium smegmatis) was < 2 µM and the MIC (Bacillus subtilis) was 2 µM. It also gave an MIC (B. subtilis pHT01-cat) of 1.6 µM, an MIC (B. subtilis pHT01-cfr) of 0.8 µM and an MIC (Listeria monocytogenes) of 5 µM. The MIC (Staphylococcus aureus) was 2 µM, the MIC (E. coli ∆tolC-CAT) was 3 µM and the MIC (E. coli ∆tolC) was 3 µM. For the same compound, the GI50 (A549) was 70 ± 10 nM, the “inhibition of cell growth (inhibition zone) of the reporter strain” value [1] was “inhibit bacterial cell growth” and the “induction of reporters” value [1] was “do not induce either of the two reporters”. The GI50 (HEK293T) was 80 ± 10 nM, the GI50 (VA13) was 270 ± 50 nM and the GI50 (MCF7) was 210 ± 30 nM.

For `C[C@H]1COc2c(N3CCN(C)CC3)c(F)cc3c(=O)c(C(=O)O)cn1c23` [LEV, levofloxacin], the “induction of reporters” value [1] was “green pseudocolored rings”.
